Measured values from US20150174207A1, “METHODS FOR TREATING CANCER WITH GHRH AGONISTS” (UNIVERSITY OF MIAMI, priority 2013, published 2015).
Entries after “also recorded” stand apart in the source; their conditions may differ. Marks after values point to notes of the source that are not given here. [ ]: non-standard residue; d: D form. The star is where a group is joined. Desaminotyrosyl = O=C(CCc1ccc(O)cc1)*; Agmatine = N=C(N)NCCCCN*; Nle = CCCC[C@H](N)C(=O)O; Orn = NCCC[C@H](N)C(=O)O; Abu = CC[C@H](N)C(=O)O

What was measured:
U-87 MG xenografts = assay: Western blot of necropsied in vivo tumor samples; parameters: species or system nude mice; conditions: xenograft samples after 6 wk treatment
Experimental: (§1) Six-wk-old nude mice (Ncr nu/nu) were obtained from the National Cancer Institute (Bethesda, Md.). The animals were housed in sterile cages in a temperature-controlled room with a 12-h light/12-h dark schedule and were fed with autoclaved chow and water, ad libitum. The Institutional Animal Care and Use Committee, VA Medical Center Miami, Fla. fully approved the animal protocols. For the therapy study, 10^6 cells per mouse of the human glioblastoma cell line, U-87 MG (American Type Culture Collection, ATCC), were injected into the flanks of four nude mice (Ncr nu/nu) under isoflurane anesthesia (Baxter). A month later, the resulting tumors were harvested and minced into ˜3 mm^3 pieces and transplanted into flanks of nude mice, under anesthesia, using a minitrocar. When the tumors reached ˜32 mm^3, the mice were randomized into four groups. The animals received the following treatments for 6 wk: (Group 1) control, 16 tumors, vehicle solution; (group 2) agonist JI-34, 1 μg/20 g, s.c., daily, 19 tumors; (group 3) DOX, 260 nmol/20 g, i.v., weekly on Thursdays, 19 tumors; and (group 4) JI-34 (1 μg/20 g daily)+DOX (260 nmol/20 g), 16 tumors. Tumor volume was measured with microcalipers once a week and calculated using the formula: (length×width×height×in)/6. Tumor doubling time was calculated using the formula: [study duration×logarithm (LOG) 2]/(LOG final tumor volume−LOG initial tumor volume). At the end of the experiment, the mice were killed under pentobarbital anesthesia, tumors were excised and weighed; necropsy was performed. Samples free of necrotic debris were immediately snap frozen in liquid nitrogen and stored at −80° C. for further analyses.
Protein from the tumor tissue was isolated using the NucleoSpin kit (Macherey-Nagel). Protein concentrations were determined by NanoDrop (NanoDrop Technologies). Equal amounts of protein were resuspended in sample loading buffer (0.25 M Trizma Base, 8% SDS, 40% glycerol, 0.004% bromophenol blue, 4% P3-mercaptoethanol; pH 6.8), boiled for 3 min and separated by 12% SDS-polyacrylamide gel electrophoresis. Proteins from the gel were then transferred onto nitrocellulose membranes, which were blocked with 50-50% Tris-buffered saline (20 mM Tris.HCl pH 7.5, 150 mM NaCl) and Odyssey blocking buffer for 1 h at room temperature, followed by an overnight incubation at 4° C. with the following primary antibodies: growth hormone-releasing hormone receptor (GHRH-R), (ab28692) nestin (ab92391), glial fibrillary acid protein (GFAP) (ab48050) (all from AbCam), β-actin (A5441; Sigma-Aldrich), or p53 (9282; Cell Signaling Technology). […] The protein bands were quantified using […] (LI-COR Biosciences); integrated density values of triplicate experiments were plotted.

U-87 MG cells [1] = assay: ApoLive-Glo Multiplex assay (viability and apoptosis); type: cell-based, human; conditions: JI-34 1 μM, DOX 100 nM, after 24 h of treatment
Experimental: Determinations of viability and apoptosis were performed from freshly seeded cell samples (10^4 cells per well, in 100 μL media, in a 96-well plate) with the help of ApoLive-Glo Multiplex Assay (Promega), according to the manufacturer's instructions. First the cells received full medium containing the following treatments: Groups 1 (control) and 3, vehicle solution; groups 2 and 4, JI-34 (1 μM final concentration). After 24 h, the cells received the following treatments: group 1, (vehicle solution); group 2, JI-34; group 3, DOX (100 nM final concentration); and group 4, JI-34+DOX. After another 24 h of incubation, viability reagent was added to the wells and fluorescence was measured by Victor3 multilabel counter. Then Caspase-Glo 3/7 apoptosis reagent was added and luminescence was determined.

U-87 cell-derived tumors = assay: Human Cancer PathwayFinder quantitative PCR array of dissected tumor samples; type: in vivo, nude mice; conditions: tumors after 6 wk treatment; fold change (ΔΔCt) vs. control
Experimental: as §1, with “The animals received the following treatments for 6 wk: (Group 1) control, 16 tumors, vehicle solution; (group 2) agonist JI-34, 1 μg/20 g, s.c., daily, 19 tumors; (group 3) DOX, 260 nmol/20 g, i.v., weekly on Thursdays, 19 tumors; and (group 4) JI-34 (1 μg/20 g daily)+DOX (260 nmol/20 g), 16 tumors.” left out, “At the end of the experiment, the mice were killed under pentobarbital anesthesia, tumors were excised and weighed; necropsy was performed. Samples free of necrotic debris were immediately snap frozen in liquid nitrogen and stored at −80° C. for further analyses.” left out
Total RNA was isolated from representative, DNase treated, U-87 MG dissected tumor samples using a NucleoSpin kit according to the manufacturer's instructions (Macherey-Nagel). Four tumor samples from each group were analyzed. The yield and the quality of RNA samples were determined spectrophotometrically using 260 nm, and 260/280- and 260/230-nm ratio. […]
The Human Cancer PathwayFinder quantitative PCR array (PAHS-033A; Qiagen) used in our study contains 84 unique genes related to cell proliferation, apoptosis, cell cycle, angiogenesis, invasion, and metastasis. […] Fold changes in gene expression were calculated using the ΔΔCt method and five stably expressed housekeeping genes (B2M, HPRT1, RPL13A, GAPDH, and ACTB) were used for normalization of the results.

[2] = test system: U-87 MG, human GBM tumors; assay: Growth of U-87 MG glioblastoma xenografts in nude mice; type: in vivo; conditions: U-87 MG xenografts in nude mice, 6 wk; JI-34 50 μg/kg/d s.c., DOX 13 μmol/kg/wk i.v.; vs. control
Experimental: as §1, with “The animals received the following treatments for 6 wk: (Group 1) control, 16 tumors, vehicle solution; (group 2) agonist JI-34, 1 μg/20 g, s.c., daily, 19 tumors; (group 3) DOX, 260 nmol/20 g, i.v., weekly on Thursdays, 19 tumors; and (group 4) JI-34 (1 μg/20 g daily)+DOX (260 nmol/20 g), 16 tumors.” left out, “At the end of the experiment, the mice were killed under pentobarbital anesthesia, tumors were excised and weighed; necropsy was performed. Samples free of necrotic debris were immediately snap frozen in liquid nitrogen and stored at −80° C. for further analyses.” left out

U-87 MG cells [3] = assay: Cell counting after repeated exposure for 3 wk (Coulter Counter); type: cell-based, human; conditions: repeated exposure 3 wk, 1 μM JI-34 daily, DOX weekly at 100 nM; vs. control
Experimental: (§2) U-87 MG cells were cultured in Eagle's minimum essential medium (ATCC) medium [supplemented with 10% FBS (ATCC) and 0.1% penicillin/streptomycin] at 37° C. and 5% CO2 atmosphere. For cell count and cell size determination, […] were seeded into T-25 flasks. The medium was changed two to three times a week. The following treatment in vitro groups were set up: (Group 1) control, vehicle solution; (group 2) JI-34 at 1 μM final concentration, daily; (group 3) DOX at 100 nM final concentration, weekly on Thursdays; and (group 4) JI-34, 1 μM and DOX, 100 nM. After 3 wk, cell count and cell size were determined by Z Series Coulter Counter (Beckman Coulter).

U-87 MG cells [4] = assay: Cell volume determination (intracellular water space, 3-OMG); type: cell-based, human; conditions: repeated exposure 3 wk, 1 μM JI-34 daily, DOX weekly at 100 nM; vs. control
Experimental: as §2
Cell volume was estimated by measuring the intracellular water space as follows. Briefly, 1 mM 3-O-methylglucose (3-OMG) and 0.5 μCi/mL [3H]-3-OMG were added to the culture 6 h before the volume assay. At the end of the incubation period, culture medium was aspirated, and an aliquot was saved for radioactivity determination. […] Radioactivity in the cell extracts and media was determined, and an aliquot of the cell extract was used for protein estimation with the Bio-Rad bicinchoninic acid kit. Values were normalized to protein level, and cell volume was expressed as microliters/milligram protein.

U-87 MG cells [5] = assay: MTT proliferation assay in vitro; type: cell-based, human; conditions: JI-34 1 μM, DOX 100 nM; combination: 24 h JI-34 pretreatment, then DOX+JI-34 48 h
Experimental: For proliferation studies, 104 cells per well were seeded in 100 μL media, in a 96-well plate, and incubated for 24 h in a humidified incubator at 37° C. Then, culture medium was replaced with FBSfree medium (starvation) for 24 h. After 24 h, the cells received full medium containing the following treatments: Groups 1 (control) and 3, vehicle solution; groups 2 and 4, JI-34 (1 μM final concentration). After another 24 h, the cells received the following treatments: group 1, vehicle solution; group 2, JI-34; group 3, DOX (100 nM final concentration); and group 4, JI-34+DOX. Then, they were incubated for 48 h and the effect on cell proliferation was evaluated by using the MTT assay (CellTiter 96 Non-Radioactive Cell Proliferation Assay; Promega), according to the manufacturer's instructions with the help of a Victor3 multilabel counter (Perkin-Elmer).

U-87 MG cells [6] = assay: Multidrug resistance (MDR) assay, calcein retention; type: cell-based, human; conditions: JI-34 1 μM pretreatment 24 h, DOX 100 nM, cyclosporin-A 1/1,000 dilution; 1 h; vs. control
Experimental: The multidrug resistance assays were performed according to the manufacturer's instructions (Cayman Chemical). U-87 MG cells were seeded, 5×10^4 cells per well density in 100 μL medium in 96-well, black, clear-bottom plates and grown overnight in a humidified incubator at 37° C. […] Afterward, the cells were incubated for 1 h, then calcein AM/Hoechst dye combined staining solution was added. Fifteen minutes later, both cell density (at excitation and emission wavelengths of 355 nm and 465 nm, respectively) and calcein retention (at excitation and emission wavelengths of 485 nm and 535 nm, respectively) were detected with the help of a Victor3 multilabel counter. Relative calcein retention values were expressed as a function of cell density.

U-87 MG cells [7] = assay: Immunocytochemistry / differentiation in reduced serum-containing medium; type: cell-based, human; conditions: JI-34 1 μM, 0.1% FBS-containing medium, 2 d; vs. DMSO control
Experimental: Cells were seeded onto coverslips in six-well plates (50,000 cells per well) in 10% FBS-containing growth medium. This medium was replaced with serum-free medium the following day for 24 h. Thereafter, GHRH agonist (JI-34, 1 μM) was added in medium supplemented with 0.1% FBS and remained for the consecutive 2 d. Control cells received vehicle (DMSO). At the end of the treatment, phase-contrast images of live cells were collected and cells were fixed in ice-cold acetone for 10 min, washed with PBS three times, and blocked with 2% goat serum in PBS for 30 min. GFAP (Abcam; 1:500 dilution) or nestin (BD Transduction Laboratories; 1:75 dilution) antibodies were added in PBS for 1 h. Anti-rabbit and anti-mouse secondary antibodies (Alexa Fluor 488; Jackson Immunoresearch) were also applied for 1 h. Coverslips were mounted in Vectashield mounting medium containing DAPI for nuclear staining (Vector Laboratories). Images were acquired on a Nikon Eclipse Ti fluorescence microscope (Nikon Instruments).

U-87 MG cells [8] = assay: ELISA of p53, FGF basic and TGFβ; type: cell-based, human; conditions: cell culture supernatant, 1 μM JI-34; vs. control
Experimental: Glioblastoma cells (10^5 cells per well) were seeded onto six-well plates, cultured overnight, and then exposed to compounds used in the 3-(4,5-dimethylthiazol-2-yl)-2,5-diphenyltetrazolium bromide proliferation assays: Groups 1 (control) and 3, vehicle solution; groups 2 and 4, GHRH agonists JI-34 (1 μM final concentration). After another 24 h, the cells received the following treatments: Group 1, vehicle solution; group 2, JI-34; group 3, doxorubicin (DOX) (100 nM final concentration); and group 4, JI-34+DOX. Concentrations of the specific proteins in the medium (in the case of FGF basic or TGFβ-1) or in samples of scraped and homogenized cells (in the case of p53) were determined after 24 h using ELISA kits according to the manufacturer's instructions. Human TGFβ and FGF basic ELISA kits were obtained from AbCam, whereas p53 was measured with a PathScan Sandwich ELISA kit (Cell Signaling Technology). Readings were normalized to protein concentrations as determined by NanoDrop (NanoDrop Technologies).

In the case of COc1cccc2c1C(=O)c1c(O)c3c(c(O)c1C2=O)C[C@@](O)(C(=O)CO)C[C@@H]3O[C@H]1C[C@H](N)[C@H](O)[C@H](C)O1 [DOX, doxorubicin], the “expression of GFAP” value (U-87 MG xenografts) is reported as “decrease”, the “expression of the neuroectodermal stem-cell marker nestin” value (U-87 MG xenografts) is reported as “increased” and the increase in apoptosis (U-87 MG cells [1]) is reported as 182%. For the same compound, the “Relative expression of B-cell lymphoma 2 (Bcl-2)” value (U-87 cell-derived tumors) was −1.8*, the “Relative expression of Integrin α3 (CD49C)” value (U-87 cell-derived tumors) was −1.65* and the “Relative expression of S100 calcium binding protein A4 (S100-A4)” value (U-87 cell-derived tumors) was −2.34*. For the same compound, the “inhibition of tumor growth” value [2] was 35%, the “decrease in the number of cells” value (U-87 MG cells [3]) was 52% and the “decrease in the volume of the cells (intracellular water content)” value (U-87 MG cells [4]) was 20%. For the same compound, the “inhibitory effect on proliferation (MTT)” value (U-87 MG cells [5]) was “no significant effect” and the “increase in calcein retention” value (U-87 MG cells [6]) was 7%.

With “[Dat^1, Orn^12, Abu^15, Orn^21, Nle^27, Asp^28, Agm^29]hGHRH(1-29)NH2 ([Desaminotyrosyl]ADAIFTNSYR[Orn]VL[Abu]QLSAR[Orn]LLQDI[Nle]D[Agmatine]-NH2) [JI-34]” the “expression of the neuroectodermal stem-cell marker nestin” value (U-87 MG xenografts) was “decreased”, the “increase in GFAP expression (integrated density values)” value (U-87 MG xenografts; compared with the control) was 70% and the increase in apoptosis (U-87 MG cells [1]) was “no effect”. The “GFAP labeling (immunofluorescence)” value (U-87 MG cells [7]) was “high levels of GFAP were detected; also recorded: elevation in the intensity of GFAP-labeling”, the “nestin level (immunofluorescence)” value (U-87 MG cells [7]) was “did not change notably; also recorded: did not show a significant change” and the “decrease in the number of cells” value (U-87 MG cells [3]) was “no significant effect”. The “decrease in level of TGFβ” value (U-87 MG cells [8]) was 24%, the “decrease in level of bFGF” value (U-87 MG cells [8]) was 37% and the “inhibitory effect on proliferation (MTT)” value (U-87 MG cells [5]) was “no significant effect”.
